Results reported in patent US20150258072A1, “Antibacterial compositions” (WOCKHARDT LIMITED, priority 2012, published 2015).
Like-named read-outs stand apart in the source and are kept apart here.

Legend:
Format in all cases: cell-based
[1] = test system: K. pneumoniae ATCC 700603 strain producing SHV 18 ESBL; experiment: Cidal activity (bacterial count over time); conditions: for Bacterial count: concentrations in label
[2] = test system: K. pneumoniae ATCC 700603 strain producing SHV 18 ESBL; experiment: MIC by agar dilution (CLSI); conditions: Klebsiella pneumoniae
Protocol: The efficacy of compositions and methods in treating or controlling bacterial infections was studied. In a typical study, overnight grown bacterial cultures were diluted appropriately and inoculated on the agar media containing doubling dilutions of the antibiotic. Observation for growth or no growth was performed after 16-20 hours of incubation at 35±2° C. in ambient air. The overall procedure was performed as per Clinical and Laboratory Standards Institute (CLSI) recommendations (Clinical and Laboratory Standards Institute (CLSI), performance Standards for Antimicrobial Susceptibility Testing, 20th Informational Supplement, M 100-S20, Volume 30, No. 1, 2010).

[3] = test system: K. pneumoniae B 43 strain producing SHV and TEM ESBLs; experiment: Cidal activity (bacterial count over time); conditions: concentrations in label
[4] = Table 7, 2 hours, initial count 7.27 log CFU/ml
[5] = Table 7, 4 hours, initial count 7.27 log CFU/ml
[6] = Table 7, 8 hours, initial count 7.27 log CFU/ml
[7] = Table 2, 2 hours, initial count 6.65 log CFU/ml
[8] = Table 2, 6 hours, initial count 6.65 log CFU/ml
[9] = Table 2, 8 hours, initial count 6.65 log CFU/ml
[10] = Table 4, 2 hours, initial count 7.43 log CFU/ml
[11] = Table 4, 4 hours, initial count 7.43 log CFU/ml
[12] = Table 4, 8 hours, initial count 7.43 log CFU/ml
[13] = Table 6, 2 hours, initial count 7.27 log CFU/ml
[14] = Table 6, 4 hours, initial count 7.27 log CFU/ml
[15] = Table 6, 8 hours, initial count 7.27 log CFU/ml
[16] = Table 3, 2 hours, initial count 7.04 log CFU/ml
[17] = Table 3, 6 hours, initial count 7.04 log CFU/ml
[18] = Table 3, 8 hours, initial count 7.04 log CFU/ml
[19] = Table 5, 2 hours, initial count log 7.43 CFU/ml
[20] = Table 5, 4 hours, initial count log 7.43 CFU/ml
[21] = Table 5, 8 hours, initial count log 7.43 CFU/ml

| SMILES | Bacterial count [1, 4] [Log CFU/ml] | Bacterial count [1, 5] [Log CFU/ml] | Bacterial count [1, 6] [Log CFU/ml] | Bacterial count [1, 7] [Log CFU/ml] | Bacterial count [1, 8] [Log CFU/ml] | Bacterial count [1, 9] [Log CFU/ml] | Bacterial count [1, 10] [Log CFU/ml] | Bacterial count [1, 11] [Log CFU/ml] | Bacterial count [1, 12] [Log CFU/ml] | Bacterial count [1, 13] [Log CFU/ml] | Bacterial count [1, 14] [Log CFU/ml] | Bacterial count [1, 15] [Log CFU/ml] | antibacterial activity (growth in presence of drug alone) ([1]; Table 2) | Bacterial count [3, 16] [Log CFU/ml] | Bacterial count [3, 17] [Log CFU/ml] | Bacterial count [3, 18] [Log CFU/ml] | Bacterial count [3, 19] [Log CFU/ml] | Bacterial count [3, 20] [Log CFU/ml] | Bacterial count [3, 21] [Log CFU/ml] | further results |
| --- | --- | --- | --- | --- | --- | --- | --- | --- | --- | --- | --- | --- | --- | --- | --- | --- | --- | --- | --- | --- |
| CO/N=C(\C(=O)N[C@@H]1C(=O)N2C(C(=O)O)=C(COC(N)=O)CS[C@H]12)c1ccco1 [Cefuroxime (2 mcg/ml), cefuroxime] | 8.77 | 8.90 | 9 | – | – | – | – | – | – | – | – | – | – | – | – | – | – | – | – | – |
| CC1(C)S[C@@H]2[C@H](/N=C/N3CCCCCC3)C(=O)N2[C@H]1C(=O)O [Mecillinam, mecillinam] | 8.23 | 8.74 | 9.47 | 7.47 | 8.23 | 9.1 | 7.95 | 8.33 | 8.90 | 8.23 | 8.74 | 9.47 | no antibacterial activity | 7.74 | 8.69 | 8.89 | 8.39 | 8.60 | 8.90 | MIC ([2]; ATCC700603, agent used alone, read-out: MIC value when used alone): > 64 µg/mL |
| O=C(O)[C@H]1/C(=C/CO)O[C@@H]2CC(=O)N21 [Clavulanic acid, clavulanic acid] | 8.47 | 9.09 | 9.09 | 8.1 | 8.8 | 9 | 8.4 | 8.65 | 8.9 | 8.47 | 9.09 | 9.09 | no antibacterial activity | 8.1 | 8.7 | 9 | 8.1 | 8.56 | 8.85 | MIC ([2]; ATCC700603, read-out: MIC value when used alone): > 64 µg/mL |
| COCC1=C(C(=O)O)N2C(=O)[C@@H](NC(=O)/C(=N\OC)c3csc(N)n3)[C@H]2SC1 [Cefpodoxime (2 mcg/ml), cefpodoxime] | – | – | – | – | – | – | – | – | – | 8.54 | 9 | 9 | – | – | – | – | – | – | – | – |
| C[C@@H](O)[C@H]1C(=O)N2C(C(=O)O)=C(SCCN=CN)C[C@H]12 [Imipenem, imipenem] | 5.32 | 3.84 | 2.32 | 5.32 | 2.6 | 2.0 | 4.87 | 3.39 | 2.84 | 5.32 | 3.84 | 2.32 | – | 5.4 | 3.9 | 3.8 | 6.37 | 5.69 | 6.60 | – |
| C=CC1=C(C(=O)O)N2C(=O)[C@@H](NC(=O)/C(=N\OCC(=O)O)c3csc(N)n3)[C@H]2SC1 [Cefixime (2 mcg/ml), cefixime] | – | – | – | – | – | – | 8.11 | 8.30 | 9 | – | – | – | – | – | – | – | 8.16 | 8.47 | 8.84 | – |
| CC1(C)S[C@@H]2[C@H](NC(=O)[C@H](N)c3ccc(O)cc3)C(=O)N2[C@H]1C(=O)O [Amoxicillin, amoxicillin] | – | – | – | 7.84 | 8.5 | 9 | – | – | – | – | – | – | no antibacterial activity | 7.8 | 8.8 | 9 | – | – | – | MIC ([2]; ATCC700603, amoxicillin alone or with fixed concentration of partner(s) named in the label, read-out: MIC of Amoxicillin): > 64 µg/mL |
